Data: patent US20180055844A1 (Celgene Corporation, priority 2011, published 2018)
“And” between values parts separate entries of the source, which are not always exact repeats. Equal entries are not always repeated. Where two headings read alike, the source gives them in different places.

Columns and labels:
DoHH2 xenograft = DoHH2 xenograft model; format: in vivo; settings: for tumor growth inhibition: day 12
WSU-DLCL2 xenograft = WSU-DLCL2 xenograft model; format: in vivo; settings: combination with Rituxan (2 mg/kg iv qw)
ZR-75-1 = test: Solid tumor cell colony formation; format: cell-based; settings: Homo sapiens
HUVEC = HUVEC tube formation; format: cell-based, human
DLBCL cell lines = test: In vitro DLBCL cell thymidine incorporation assay (panel); format: cell-based; settings: 5 days, 3H-thymidine incorporation
Description: Results of 3 independent experiments are shown (mean±SD) in FIG. 2. […] ABC-subtype cells appear more sensitive to the antiproliferative effect than other subtype cells including GCB-DLBCL and PMBL cells.

[1] = test system: multiple myeloma (MM) cell lines; test: Inhibition of MM cell proliferation; format: cell-based
Method: The ability of compounds to effect the proliferation of MM cell lines was investigated in an in vitro study. Uptake of [^3H]-thymidine by H929 MM cells and 7-AAD uptake in several MM cell lines (H929, U266B1, Anbl-6, KMS-34, OPM-2, DF-15, DF15/R, CAG, MM1.S and LP-1) was measured as an indicator of cell proliferation. Cells were incubated in the presence of compounds for 72 hours ([^3H]-thymidine was included for the last 6 hours of the incubation period) or 5 days followed by 7-AAD uptake to measure and count viable cells.

SK-HEP-1 = test: Solid tumor cell colony formation; format: cell-based; settings: Homo sapiens, SK-HEP1
[2] = test system: human umbilical vascular endothelial cell (HUVEC); test: HUVEC invasion; format: cell-based
U87 = test: Invasion of solid tumor cells; format: cell-based; settings: Homo sapiens, U-87 MG; U87 (PDGF), glioblastoma
[3] = PK profiles in male monkeys; format: in vivo, monkey; settings: for AUC(0-t) / Cmax: monkey, in vivo, po, male monkeys
HepG2 = test: Invasion of solid tumor cells; format: cell-based; settings: Homo sapiens; HepG2 (VEGF), hepatocellular
SF-539 = test: Invasion of solid tumor cells; format: cell-based; settings: Homo sapiens; SF-539 (PDGF), glioblastoma
human umbilical artery = test: Human umbilical artery angiogenesis assay; format: cell-based
[4] = Pharmacokinetics in monkeys on Day 1 and Day 27; settings: monkey, in vivo; for AUC(0-t): read-out: AUC0-24
HCT15 [5] = test: Solid tumor cell colony formation; format: cell-based; settings: Homo sapiens, HCT-15
NFκB p65 and p50 = test: NFκB activity in DLBCL cells (Active Motif transcription factor assay); format: cell-based; settings: 0.1 μM, 1 μM and 10 μM, 2 days
Description: NF-κB activity was examined with Active Motif transcription factor assay using nuclear extracts from cells following treatment.

Oral pharmacokinetics = format: in vivo, SD rat
CRBN = target: T1, CRBN (Homo sapiens, UniProt Q96SW2); test: CRBN interaction; format: binding; settings: dose-dependent
T1 construct: endogenous in cells; HepG2 hepatocellular carcinoma cells

HIF-1α = HIF-1α protein expression in solid tumor cell lines; format: cell-based; settings: 1 μM
HCT15 [6] = test: Invasion of solid tumor cells; format: cell-based
SF295 = test: Solid tumor cell colony formation; format: cell-based; settings: Homo sapiens, SF-295
[7] = female, 0.15 mg/kg, Day 1, 0.15 mg/kg, female
[8] = female, 0.15 mg/kg, Day 27, 0.15 mg/kg, female
[9] = female, 1.5 mg/kg, Day 1, 1.5 mg/kg, female
[10] = female, 1.5 mg/kg, Day 27, 1.5 mg/kg, female
[11] = female, 15 mg/kg, Day 1, 15 mg/kg, female
[12] = female, 15 mg/kg, Day 27, 15 mg/kg, female
[13] = male, 0.15 mg/kg, Day 1, 0.15 mg/kg, male
[14] = male, 0.15 mg/kg, Day 27, 0.15 mg/kg, male
[15] = male, 1.5 mg/kg, Day 1, 1.5 mg/kg, male
[16] = male, 1.5 mg/kg, Day 27, 1.5 mg/kg, male
[17] = male, 15 mg/kg, Day 1, 15 mg/kg, male
[18] = male, 15 mg/kg, Day 27, 15 mg/kg, male
[19] = plasma, 30 mg/kg, SD rat, 30 mpk po

T1 sequence (Q96SW2 whole entry): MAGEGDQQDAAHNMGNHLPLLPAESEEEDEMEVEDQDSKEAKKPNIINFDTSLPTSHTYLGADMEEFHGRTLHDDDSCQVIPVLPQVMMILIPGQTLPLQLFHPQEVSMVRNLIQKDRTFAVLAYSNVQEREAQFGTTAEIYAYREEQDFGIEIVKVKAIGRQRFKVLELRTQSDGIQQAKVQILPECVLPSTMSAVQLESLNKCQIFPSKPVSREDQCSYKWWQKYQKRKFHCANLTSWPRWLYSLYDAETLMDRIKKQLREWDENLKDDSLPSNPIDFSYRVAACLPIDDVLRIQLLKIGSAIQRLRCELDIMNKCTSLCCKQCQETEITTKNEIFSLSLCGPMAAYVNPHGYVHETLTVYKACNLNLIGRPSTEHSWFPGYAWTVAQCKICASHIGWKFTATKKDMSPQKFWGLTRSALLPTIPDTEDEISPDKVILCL

For `Cc1nc2cccc(N)c2c(=O)n1C1CCC(=O)NC1=O` (stereo not shown) [compound of Formula I, 3-(5-amino-2-methyl-4-oxo-4H-quinazolin-3-yl)-piperidine-2,6-dione], the tumor growth inhibition (DoHH2 xenograft; 3 mpk in combination with Rituxan (1 mg/kg)) was 45%, the tumor growth inhibition (DoHH2 xenograft; 30 mpk in combination with Rituxan (1 mg/kg)) was 55% and the “delay of time to tumor endpoint” value (DoHH2 xenograft; combination with Rituxan, 30 mg/kg dose) was 63%. The “blood vessels counts in tumor” value (DoHH2 xenograft; in vivo) was “significantly inhibited”, the tumor growth (DoHH2 xenograft; single agent) was “inhibited tumor growth” and the “complete regressions (tumor volume<25 mm^3)” value (WSU-DLCL2 xenograft; 3 mg) was 60%. The “complete regressions (tumor volume<25 mm^3)” value (WSU-DLCL2 xenograft; 30 mg) was 90%, the inhibition at 10 µM (ZR-75-1) was 90% and the “VEGF and bFGF-induced HUVEC tube formation and migration” value (HUVEC) was “weakly inhibited”. For the same compound, the “concentration starting at which proliferation of several lines of DLBCL cells was significantly (p<0.05) inhibited” value (DLBCL cell lines) was 0.1 to 1 µM, the “MM cell proliferation in a number of cell lines” value [1] was “inhibit MM cell proliferation” and the inhibition at 10 µM (SK-HEP-1) was 6%. The IC50 ([2]; read-out: IC50 for inhibition of HGF-induced HUVEC invasion) was 110 nM, the IC50 ([2]; read-out: IC50 for inhibition of VEGF-induced HUVEC invasion) was 0.29 nM and the IC50 ([2]; read-out: IC50 for inhibition of bFGF-induced HUVEC invasion) was 5.5 nM. The IC50 (U87) was 80 nM, the AUC(0-t) ([3]; 0.3 mg/kg) was 1300 ng·h/mL and 4.5 µM·h and the Cmax ([3]; 0.3 mg/kg) was 100 ng/mL and 360 nM. The AUC(0-t) ([3]; 3 mg/kg) was 14000 ng·h/mL and 49 µM·h, the Cmax ([3]; 3 mg/kg) was 1100 ng/mL and 3.8 µM and the AUC(0-t) ([3]; 10 mg/kg) was 38000 ng·h/mL and 130 µM·h. For the same compound, the Cmax ([3]; 10 mg/kg) was 3100 ng/mL and 11 µM, the AUC(0-t) ([3]; 30 mg/kg) was 99000 ng·h/mL and 350 µM·h and the Cmax ([3]; 30 mg/kg) was 7700 ng/mL and 27 µM. For the same compound, the “Exposures (AUC(0-t)) versus dose” value ([3]; up to 30 mg/kg, male monkey) was “increased in a dose proportional manner”, the IC50 (HepG2) was under 1 nM and the IC50 (SF-539) was 25 nM. It also gave an IC50 (human umbilical artery; read-out: Human angiogenesis IC50) of 9.4 nM, an IC50 (human umbilical artery; read-out: anti-angiogenic IC50, human umbilical artery assay) of 9.4 nM and a Cmax [4, 7] of 63 ng/mL. For the same compound, the Tmax [4, 7] was 2 h, the AUC(0-t) [4, 7] was 450 ng·h/mL and the Cmax [4, 8] was 57 ng/mL. For the same compound, the Tmax [4, 8] was 2 to 4 h, the AUC(0-t) [4, 8] was 450 ng·h/mL and the Cmax [4, 9] was 680 ng/mL. For the same compound, the Tmax [4, 9] was 2 h, the AUC(0-t) [4, 9] was 4100 ng·h/mL and the Cmax [4, 10] was 590 ng/mL. For the same compound, the Tmax [4, 10] was 0.5 to 2 h, the AUC(0-t) [4, 10] was 4200 ng·h/mL and the Cmax [4, 11] was 4200 ng/mL. It also gave a Tmax [4, 11] of 2 to 4 h, an AUC(0-t) [4, 11] of 38000 ng·h/mL and a Cmax [4, 12] of 7000 ng/mL. For the same compound, the Tmax [4, 12] was 4 h, the AUC(0-t) [4, 12] was 75000 ng·h/mL and the Cmax [4, 13] was 36 ng/mL. For the same compound, the Tmax [4, 13] was 2 to 4 h, the AUC(0-t) [4, 13] was 430 ng·h/mL and the Cmax [4, 14] was 53 ng/mL. For the same compound, the Tmax [4, 14] was 4 h, the AUC(0-t) [4, 14] was 570 ng·h/mL and the Cmax [4, 15] was 510 ng/mL. It also gave a Tmax [4, 15] of 2 to 4 h, an AUC(0-t) [4, 15] of 4600 ng·h/mL and a Cmax [4, 16] of 560 ng/mL. For the same compound, the Tmax [4, 16] was 2 h, the AUC(0-t) [4, 16] was 5700 ng·h/mL and the Cmax [4, 17] was 4100 ng/mL. The Tmax [4, 17] was 4 h, the AUC(0-t) [4, 17] was 51000 ng·h/mL and the Cmax [4, 18] was 5800 ng/mL. It also gave a Tmax [4, 18] of 2 to 4 h, an AUC(0-t) [4, 18] of 72000 ng·h/mL and an inhibition at 10 µM (HCT15 [5]) of 3%. For the same compound, the “NFκB p65 and p50 activity” value (NFκB p65 and p50) was “significantly inhibits”, the F (Oral pharmacokinetics; SD rat, 30 mpk po) was 53% and the AUC (Oral pharmacokinetics; [19]) was 25000 ng·h/mL and 87 µM·h. For the same compound, the Cmax (Oral pharmacokinetics; [19]) was 4800 ng/mL and 17 µM, the half-life (Oral pharmacokinetics; plasma, oral, 30 mpk, SD rat) was 2.7 h and the clearance (Oral pharmacokinetics; plasma, SD rat, read-out: CLp) was 11 mL/min/kg. For the same compound, the “Exposures (AUC(0-t)) versus dose” value (Oral pharmacokinetics; up to 30 mg/kg, CD-IDS rat) was “increased in a dose proportional manner”, the “interaction with HepG2 HCC CRBN” value (CRBN) was “interacts” and the “interaction with endogenous myeloma CRBN” value (CRBN) was “interact”. The “% Inhibition of HIF-1α protein expression” value (“% Inhibition” for short) (HIF-1α; 786-O (renal cancer)) was 41.70%, the “% Inhibition” value (HIF-1α; DU145 (prostate cancer)) was 66.01% and the “% Inhibition” value (HIF-1α; HCT15 (colorectal cancer)) was 69.26%. For the same compound, the “% Inhibition” value (HIF-1α; HCT116 (colorectal cancer)) was 74.60%, the “% Inhibition” value (HIF-1α; HT29 (colorectal cancer)) was 78.54% and the “% Inhibition” value (HIF-1α; MCF-7 (breast cancer)) was 74.82%. For the same compound, the “% Inhibition” value (HIF-1α; Miapaca-3 (pancreatic cancer)) was 33.72%, the “% Inhibition” value (HIF-1α; Ovcar-3 (ovarian cancer)) was 63.39% and the “% Inhibition” value (HIF-1α; Skov-3 (ovarian cancer)) was 100.00%. The “% Inhibition” value (HIF-1α; U87 (brain cancer)) was 73.81%, the IC50 (HCT15 [6]; Homo sapiens, HCT-15, HCT15 (bFGF), colorectal) was 7.2 nM and the “ability to inhibit invasion of HCT-15 cells” value (HCT15 [6]; with siCRBN) was “reduced”. It also gave an inhibition at 10 µM (SF295) of 12.9%.
